Columns and labels:
[1] = system: human PC3 prostate cancer xenograft; test: Subcutaneous PC3 prostate tumor xenograft, tumor growth inhibition; assay type: in vivo, athymic nude mice; conditions: Avastin 8 mg/kg 2x/wk
Description: (§1) Methods: Subcutaneous human breast (MDA-MB-231), colon (HT29) and prostate (PC3) tumors were grown in athymic nude mice and treated intravenously (IV) with sub-optimal dose of ABI-011 alone at 20 mg/kg (q4d×3, q4d×2, or qd×1) and in combination with nab-paclitaxel (5 mg/kg, q4d×3, IV) or bevacizumab (8 mg/kg, 2×wkly, IP). The effect of dose, schedule, and sequence of combination regimen on therapeutic efficacy was tested. ABI-011 was administered 24 h before, concurrent with, or 24 h after nab-paclitaxel or bevacizumab treatment.

[2] = Body weight change in PC3 tumor-bearing mice; assay type: in vivo, athymic nude mice; conditions: Avastin 8 mg/kg 2x/wk
Description: as §1

[3] = system: human HT29 colon cancer xenograft; test: Subcutaneous HT29 colon tumor xenograft, antitumor activity (Example 1); assay type: in vivo, athymic nude mice; conditions: Avastin 8 mg/kg 2x/wk
Description: as §1

[4] = system: quail embryonic CAM vasculature; test: Shell-less quail embryonic CAM assay, vascular disrupting activity; assay type: in vivo
Description: (§2) Methods: The antiangiogenic and VDA effects of ABI-011 were examined in vitro using tubule formation assay with human umbilical vein endothelial cells (HUVEC) and in vivo using the standard chick embryonic chorioallantoic membrane (CAM) assay with 3-day old embryos (n=18). The shell-less quail embryonic CAM assay was used to determine the time course of VDAs (ABI-011 vs. combretastatin A4 Phosphate [CA4P]). Quail embryos (n=36) were exposed to ABI-011 (1 to 16 μg/ml) on day 7 and digital CAM images were acquired over a 60 min period for scoring VDA. Subcutaneous human colon (HT29) tumors were grown in athymic nude mice and treated intravenously (IV) with ABI-011 (20-40 mg/kg; q4d×3, IV) or CA4P (200 mg/kg; qd×4, IV). The animal weights and tumor measurements were recorded three times weekly and adverse observations recorded.

[5] = system: human colon (HT29) tumors; test: Subcutaneous HT29 colon tumor xenograft, ABI-011 vs CA4P (Example 3); assay type: in vivo, athymic nude mice; conditions: CA4P 200 mg/kg, qd×4, IV
Description: as §2

Compound	TGI, tumor growth inhibition on day 23 [1]	BWC, percent body weight change on day 21 [2]	TGI, tumor growth inhibition on day 23 [3]	Three-TDT [3]	Vascular disrupting activity (VDA), in words ([4]; quail CAM, at concentrations much higher than the effective dose of ABI-011)	IC50, vascular disrupting activity (VDA) ([4]; quail embryonic CAM, scored over 60 min)	LD50, embryonic mortalities ([4]; quail embryos)	Antitumor efficacy, in words [5]
Avastin: anti-VEGF antibody (bevacizumab)	52.9%	−24.6%	75.3%	19.3 days	–	–	–	–
COc1ccc(/C=C\c2cc(OC)c(OC)c(OC)c2)cc1OP(=O)(O)O [CA4P, combretastatin A4 Phosphate]	–	–	–	–	only modest VDA	13.1 µg/mL	12.8 µg/mL	ineffective
